How the values were obtained:
[1] = Plasma pharmacokinetics after oral administration to cynomolgus monkeys (LC-MS/MS); assay type: in vivo; details: male cynomolgus monkey, 3 mg/kg to the stomach in 0.5% MC, fasted; for Cmax: po, read-out: Cmax: Maximum concentration
Method: Cynomolgus monkeys (male) were used, and the monkeys were fasted from one day before the test compound was administered. The administration sample was prepared by adding a 0.5% MC (methyl cellulose) solution to the test compound such that the dose was 3 mg/2 mL/kg. Each administration sample was administered to the stomach of the cynomolgus monkey using a tube. After the sample was administered, about 5 mL of water was administered. Each administration sample was administered to three cynomolgus monkeys in one group.
As for blood collection, about 1 mL of blood was collected from the femoral vein before administration, and […] 1, 2, 4, 6, 8, 24 and 48 hours after administration using an injection syringe treated with heparin. The collected blood was centrifuged (15,000×g, […], 4° C.) to obtain plasma. The obtained plasma was stored in a freezer (−20° C.) until pretreatment.
Preparation of Standard Solution and Internal Standard (IS) Solution: Each test compound was dissolved in acetonitrile, whereby a 1 mg/mL solution of each test compound was prepared. A standard solution was prepared by diluting each compound solution with acetonitrile. Further, sodium warfarin (Wako Pure Chemical Industries, Ltd.) was dissolved in acetonitrile to prepare a 500 ng/mL IS solution. Pretreatment of Plasma Sample: 50 μL of the plasma sample was taken out and 50 μL of acetonitrile was added thereto. For a calibration curve, 50 μL of each standard solution (acetonitrile solution) was added to 50 μL of the blank plasma. To all the samples, 150 μL of the IS acetonitrile solution was added, and the mixture was stirred, and then centrifuged (about 1,800×g, 30 min, 4° C.). After filtration was performed with Sirocco Protein Precipitation Plate (Waters Corporation), the filtrate was appropriately diluted with a mobile phase to prepare an LC-MS/MS analysis sample. Determination of Test Compound: The plasma concentration of each test compound was analyzed by the LC-MS/MS method. [HPLC Analysis Conditions]
Analysis: A pharmacokinetics parameter was calculated from the plasma concentration of each agent using WinNonlin Professional (Ver. 4.0.1, Pharsight Corporation). Incidentally, Noncompartment model was used as a model for calculation of the parameter.

[2] = biological target: T1, human mineralocorticoid receptor (hMR) ligand-binding domain (GAL4-hMR receptor) (Homo sapiens, UniProt P08235); assay: GAL4-hMR luciferase reporter assay in HEK293 cells in the presence of 1 nM aldosterone (mineralocorticoid receptor antagonistic activity); assay type: cell-based; details: for IC50: concentration giving Imax/2, HEK293, 1 nM aldosterone present, overnight incubation, read-out: ICmax50; for Imax: maximum value from the graph of relative luciferase activity, DMSO control = 0%, 1 nM aldosterone control = 100%
T1 construct: expressed in transfected cells; host or cells: HEK293
T1 sequence (P08235 726-964 limits assumed): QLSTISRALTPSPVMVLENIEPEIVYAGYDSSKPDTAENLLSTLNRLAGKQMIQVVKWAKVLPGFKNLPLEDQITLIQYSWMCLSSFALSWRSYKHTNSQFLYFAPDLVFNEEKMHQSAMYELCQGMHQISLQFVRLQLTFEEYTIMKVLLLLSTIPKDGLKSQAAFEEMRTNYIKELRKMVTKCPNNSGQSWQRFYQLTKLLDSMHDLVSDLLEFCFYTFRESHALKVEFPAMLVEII
Source text: A plasmid pM-hMR-LBD which is obtained by ligation of a ligand-binding domain (LBD, corresponding to a region of about 308 amino acids at the carboxy terminus) of human mineralocorticoid receptor (hMR, NM_000901) to a DNA-binding domain (corresponding to a region of 147 amino acids at the amino terminus) of a yeast transcription factor GAL4 and expresses GAL4-hMR receptor was constructed. Using a reporter plasmid which has a sequence binding to the DNA-binding domain of GAL4 (UAS sequence) and contains a luciferase gene (such as pFR-Luc, a plasmid available from Stratagene Cloning Systems), a reporter assay was performed.
The previously obtained plasmid pM-hMR-LBD and the reporter plasmid were transfected into a human fetus-derived renal cell line HEK293 by the lipofection method. On the following day, the cells were treated with trypsin and collected. A white 96-well plate (manufactured by Costar, Inc.) was prepared, and the cells were dispensed into each well in an amount of 95 μL using a DMEM medium containing 5% FBS (fetal bovine serum) which had been treated with activated charcoal.
As for each test compound, solutions obtained by dissolving the test compound in dimethyl sulfoxide at predetermined concentrations were used, and the solutions were appropriately diluted with medium and added to the cells in the white 96-well plate to give a final concentration of 0.1%. When the test compound was added, 1 nM aldosterone was allowed to be present. A well group to which dimethyl sulfoxide was added was assigned Control 1 group; and a well group to which 1 nM aldosterone was added was assigned Control 2 group. After the addition, the plate was incubated overnight.
On the following day, the medium was removed, and a luciferase substrate (Wako Pure Chemical Industries, Ltd.) was prepared according to the package insert and added to each well in an amount of 50 μL, and then, the plate was stirred for about 30 minutes. The luminescence intensity of each well was measured using Analyst (manufactured by Molecular Devices Corporation) and taken as the luciferase activity. The luciferase activity value of Control 1 group was taken as 0%, the luciferase activity value of Control 2 group was taken as 100%, and relative luciferase activity values for the respective doses of the test compound in the test compound addition group were plotted to create a graph. From the graph, the maximum value was calculated as Imax (%), and the concentration of the test compound showing the value of Imax/2 was calculated as ICmax50 (M). In Table 1, ICmax50 values are shown.

Compound: Cc1c(C(=O)Nc2ccc(S(C)(=O)=O)cc2)cn(C)c1-c1ccccc1C(F)(F)F (racemic) [Example 1, (+/−)-1,4-dimethyl-N-[4-(methylsulfonyl)phenyl]-5-[2-(trifluoromethyl)phenyl]-1H-pyrrole-3-carboxamide]
- AUC: Area under the plasma concentration versus time curve (0-48 hr.) [1]: 860 ng·h/mL
- Cmax [1]: 42 ng/mL
- IC50 [2]: 13 nM
- Imax [2]: 95%

Compound: Cc1c(C(=O)Nc2ccc(S(C)(=O)=O)cc2)cn(CCO)c1-c1ccccc1C(F)(F)F (racemic) [Example 3, (+/−)-1-(2-hydroxyethyl)-4-methyl-N-[4-(methylsulfonyl)phenyl]-5-[2-(trifluoromethyl)phenyl]-1H-pyrrole-3-carboxamide]
- AUC: Area under the plasma concentration versus time curve (0-48 hr.) [1]: 7667 ng·h/mL
- Cmax [1]: 380 ng/mL
- Imax [2]: 105%

Compound: COc1ccc(-c2c(C)c(C(=O)Nc3ccc(S(C)(=O)=O)cc3)cn2CCO)c(C(F)(F)F)c1 (racemic) [Example 5, (+/−)-1-(2-hydroxyethyl)-5-[4-methoxy-2-(trifluoromethyl)phenyl]-4-methyl-N-[4-(methylsulfonyl)phenyl]-1H-pyrrole-3-carboxamide]
- AUC: Area under the plasma concentration versus time curve (0-48 hr.) [1]: 33 ng·h/mL
- Cmax [1]: 2 ng/mL
- IC50 [2]: 5.3 nM
- Imax [2]: 97%

Compound: Cc1c(C(=O)Nc2ccc(S(C)(=O)=O)cc2)cn(C)c1-c1ccccc1C(F)(F)F (single isomer, unassigned) [Isomer A, (−)-1,4-dimethyl-N-[4-(methylsulfonyl)phenyl]-5-[2-(trifluoromethyl)phenyl]-1H-pyrrole-3-carboxamide]
- IC50 [2]: > 1000 nM

Compound: Cc1c(C(=O)Nc2ccc(S(C)(=O)=O)cc2)cn(C)c1-c1ccccc1C(F)(F)F (single isomer, unassigned) [Isomer B, (+)-1,4-dimethyl-N-[4-(methylsulfonyl)phenyl]-5-[2-(trifluoromethyl)phenyl]-1H-pyrrole-3-carboxamide]
- AUC: Area under the plasma concentration versus time curve (0-48 hr.) [1]: 3446 ng·h/mL
- Cmax [1]: 184 ng/mL
- IC50 [2]: 2.6 nM
- Imax [2]: 123%

Compound: Cc1c(C(=O)Nc2ccc(S(C)(=O)=O)cc2)cn(CCO)c1-c1ccccc1C(F)(F)F (single isomer, unassigned) [Isomer C, (+)-1-(2-hydroxyethyl)-4-methyl-N-[4-(methylsulfonyl)phenyl]-5-[2-(trifluoromethyl)phenyl]-1H-pyrrole-3-carboxamide]
- IC50 [2]: > 1000 nM

Compound: Cc1c(C(=O)Nc2ccc(S(C)(=O)=O)cc2)cn(CCO)c1-c1ccccc1C(F)(F)F (single isomer, unassigned) [Isomer D, (−)-1-(2-hydroxyethyl)-4-methyl-N-[4-(methylsulfonyl)phenyl]-5-[2-(trifluoromethyl)phenyl]-1H-pyrrole-3-carboxamide]
- AUC: Area under the plasma concentration versus time curve (0-48 hr.) [1]: 26390 ng·h/mL
- Cmax [1]: 1330 ng/mL
- IC50 [2]: 2.4 nM
- Imax [2]: 99%

Compound: COc1ccc(-c2c(C)c(C(=O)Nc3ccc(S(C)(=O)=O)cc3)cn2CCO)c(C(F)(F)F)c1 (single isomer, unassigned) [Isomer E, (−)-1-(2-hydroxyethyl)-5-[4-methoxy-2-(trifluoromethyl)phenyl]-4-methyl-N-[4-(methylsulfonyl)phenyl]-1H-pyrrole-3-carboxamide]
- AUC: Area under the plasma concentration versus time curve (0-48 hr.) [1]: 7187 ng·h/mL
- Cmax [1]: 681 ng/mL
- IC50 [2]: 1.8 nM
- Imax [2]: 115%

Compound: COc1ccc(-c2c(C)c(C(=O)Nc3ccc(S(C)(=O)=O)cc3)cn2CCO)c(C(F)(F)F)c1 (single isomer, unassigned) [Isomer F, (+)-1-(2-hydroxyethyl)-5-[4-methoxy-2-(trifluoromethyl)phenyl]-4-methyl-N-[4-(methylsulfonyl)phenyl]-1H-pyrrole-3-carboxamide]
- IC50 [2]: > 1000 nM

Source: patent publication US8754118B2, “Atropisomer of pyrrole derivative” (Daiichi Sankyo Company, Limited, priority 2007, dated 2014)
